Laboratory results: patent US11834453B2, “Substituted pyrimido[5,4-d]pyrimidines as HER2 inhibitors” (Array BioPharma Inc., priority 2020, dated 2023)
pIC50: −log10 of the molar value. Read-outs that look alike come from different tables or passages of the source.

Legend:
EGFR wild type (EGFR WT) = EGFR wild type (EGFR WT) (Homo sapiens (Human), UniProt P00533); assay: Cellular phosphorylation assay, EGF-stimulated EGFR phosphorylation in engineered NIH 3T3 cells, Phospho-EGFR DuoSet IC ELISA, Assay 5; type: cell-based
Method in brief: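 NIH 3T3 cells expressing EGFR WT (20,000/well, attached overnight) were exposed to serially diluted compound for 1 h at 37 °C, then stimulated with 100 ng/ml rEGF for 10 min. Phospho-EGFR in lysates measured by sandwich ELISA optical density; IC50 from curves.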

BCRP = BCRP (Homo sapiens (Human), UniProt Q9UNQ0); assay: BCRP transfected MDCKII canine Mdr1 knockout permeability/efflux, Assay 9; conditions: dog
MDR1 (P-gp) = MDR1 (P-gp) (Homo sapiens (Human), UniProt P08183); assay: MDR1 transfected LLC-PK1 permeability/efflux, Assay 6; conditions: pig
Procedure: Both MDR1 transfected LLC-PK1 (Assay 6) and MDR1 transfected MDCKII canine Mdr1 knockout cells (Assay 7) were cultured and plated according to manufacturer's recommendations with the exception that the passage media for the MDR1 transfected LLC-PK1 cell line contained only 2% fetal bovine serum so as to extend passage time out to seven days.
Both positive and negative controls were used to assess functionality of P-gp or BCRP efflux in the assays. Stock solutions for assay controls and the test article were prepared in DMSO for final test concentration of 1 μM. Final organic concentration in the assay was 1%. All dosing solutions contained 10 μM lucifer yellow to monitor MDCKII cell monolayer integrity.
For the apical to basolateral determination (A to B), 75 μL of the test article in transport buffer were added to the apical side of the individual transwells and 250 μL of basolateral media, without compound or lucifer yellow, were added to each well. For the basolateral to apical determination (B to A), 250 μL of test article in transport buffer were added to each well and 75 μL transport buffer, without compound or lucifer yellow, were added to each transwell. All tests were performed in triplicate, and each compound was tested for both apical to basolateral and basolateral to apical transport. The plates were incubated for 2 hours on a Lab-Line Instruments Titer Orbital Shaker (VWR, West Chester, PA) at 50 rpm and 37° C. with 5% CO2. All culture plates were removed from the incubator, 50 μL of media were removed from the apical and basolateral portion of each well, and added to 150 μL of 1 μM labetalol in 2:1 acetonitrile (ACN): H2O, v/v.
The plates were read using a Molecular Devices (Sunnyvale, CA) Gemini Fluorometer to evaluate the lucifer yellow concentrations at excitation/emission wavelengths of 425/535 nm. These values were accepted when found to be below 2% for apical to basolateral and 5% basolateral to apical flux across the MDR1-transfected LLC-PK1 or BCRP-transfected MDCKII cell monolayers. The plates were sealed, and the contents of each well analyzed by LC MS/MS. The compound concentrations were determined from the ratio of the peak areas of the compound to the internal standard (labetalol) in comparison to the dosing solution.
A MDS Sciex API 4000 (Applied Biosystems, Foster City, CA) mass spectrometer was used for detection of the analytes in the ion spray positive mode. Analyte responses were measured by multiple reaction monitoring (“MRM”) of transitions unique to each compound (the protonated precursor ion and selected product ions for each test article and m/z 329 to m/z 162 for labetalol, the internal standard.
The total run time, including re-equilibration, for a single injection was 1.2 minutes. […] The total run time, including re-equilibration, for a single injection was 0.61 minutes.
An efflux ratio is calculated from the mean apical to basolateral (A-B) Papp data and basolateral to apical (B-A) Papp data: Efflux ratio=Papp(B−A)/Papp(A−B)

EGFR = EGFR (Homo sapiens (Human), UniProt P00533); assay: ErbB enzyme assay (CisBio HTRF KinEASE-TK), Assay 3; type: biochemical
Method in brief: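 Kinase + 250 nM biotin TK-substrate, 1 mM ATP, cpd (3-fold dil.), HEPES pH 7.4/10 mM MgCl2/0.01% Triton/2% DMSO; 30 min 22 °C. Quench w/ Sa-XL665 + TK-Ab-Cryptate, 1 h, HTRF. IC50 = 50 POC on 4PL fit.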

[1] = target: ErbB2 with Exon 20 YVMA insertion (HER2-YVMA) (Homo sapiens (Human), UniProt P04626, INS775YVMA); assay: Cellular phosphorylation assay, constitutive ErbB2 phosphorylation (Y1196) in engineered NIH 3T3 cells, Assay 4; type: cell-based
Method in brief: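 Engineered NIH 3T3 cells expressing HER2-YVMA treated with compounds 1 h at 37 °C, then formaldehyde-fixed and methanol-permeabilized. pErbB2 Y1196 detected by in-cell infrared immunofluorescence, normalized to GAPDH. IC50 from the normalized curves.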

[2] = target: ErbB2 insYVMA (HER2-YVMA, SEQ ID NO: 2) (Homo sapiens, UniProt P04626, INS775YVMA/P1170A); assay: biochemical; conditions: ErbB2 insYVMA enzyme assay; for pIC50: read-out: Assay 1 IC50
ErbB2 WT = ErbB2 WT (Homo sapiens (Human), UniProt P04626); assay: ErbB enzyme assay (CisBio HTRF KinEASE-TK), Assay 2; type: biochemical
Method in brief: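 ErbB2 phosphorylates 250 nM biotin-TK substrate at 1 mM ATP in 25 mM HEPES pH 7.4, 10 mM MgCl2, 0.01% Triton X-100 and 2% DMSO, for 30 min at 22 °C. Product is detected by HTRF with Sa-XL665 and TK-Ab-Cryptate. Percent of control is set by DMSO-only wells and pre-quenched wells.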

[3] = Assay 9 Pe Ratio, efflux ratio Papp(B-A)/Papp(A-B), BCRP transfected MDCKII canine Mdr1 knockout
[4] = LLC-PK1, Assay 6 Pe Ratio, efflux ratio Papp(B-A)/Papp(A-B), MDR1 transfected LLC-PK1

Sequence of MDR1 (P-gp) (P08183 whole entry): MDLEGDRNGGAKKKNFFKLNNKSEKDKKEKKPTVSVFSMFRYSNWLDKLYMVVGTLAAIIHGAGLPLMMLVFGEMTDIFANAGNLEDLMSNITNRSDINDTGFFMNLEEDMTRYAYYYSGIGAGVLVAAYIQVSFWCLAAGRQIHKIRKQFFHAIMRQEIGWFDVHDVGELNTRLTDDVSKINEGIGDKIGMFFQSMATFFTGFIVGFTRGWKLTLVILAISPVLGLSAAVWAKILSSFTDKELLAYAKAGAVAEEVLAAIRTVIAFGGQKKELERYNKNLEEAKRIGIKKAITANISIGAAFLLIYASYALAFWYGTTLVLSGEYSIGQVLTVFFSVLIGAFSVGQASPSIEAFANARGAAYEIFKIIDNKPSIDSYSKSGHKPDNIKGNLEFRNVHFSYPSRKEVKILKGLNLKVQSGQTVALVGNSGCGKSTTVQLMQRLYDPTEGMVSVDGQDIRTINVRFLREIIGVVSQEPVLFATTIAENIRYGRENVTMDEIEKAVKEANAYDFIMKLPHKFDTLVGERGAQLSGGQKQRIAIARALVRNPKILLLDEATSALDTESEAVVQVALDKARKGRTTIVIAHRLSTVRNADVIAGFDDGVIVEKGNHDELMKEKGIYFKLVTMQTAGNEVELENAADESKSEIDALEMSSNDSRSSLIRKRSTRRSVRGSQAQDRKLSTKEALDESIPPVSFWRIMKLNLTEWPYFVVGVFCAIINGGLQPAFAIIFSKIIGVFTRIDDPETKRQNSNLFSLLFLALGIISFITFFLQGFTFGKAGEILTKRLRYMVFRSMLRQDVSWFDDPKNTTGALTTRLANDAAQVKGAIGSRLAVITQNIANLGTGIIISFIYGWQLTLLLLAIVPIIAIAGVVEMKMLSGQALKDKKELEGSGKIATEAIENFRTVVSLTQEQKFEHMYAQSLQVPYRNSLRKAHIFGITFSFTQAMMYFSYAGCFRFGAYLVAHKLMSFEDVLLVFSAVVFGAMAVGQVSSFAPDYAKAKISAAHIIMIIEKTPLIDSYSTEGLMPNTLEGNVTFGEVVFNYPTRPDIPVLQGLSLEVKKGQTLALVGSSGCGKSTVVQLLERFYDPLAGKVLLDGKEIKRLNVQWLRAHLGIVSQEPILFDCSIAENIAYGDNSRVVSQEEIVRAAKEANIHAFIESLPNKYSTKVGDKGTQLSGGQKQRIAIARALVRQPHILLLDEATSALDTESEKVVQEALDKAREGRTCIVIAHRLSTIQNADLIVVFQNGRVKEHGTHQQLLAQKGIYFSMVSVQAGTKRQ
Sequence of ErbB2 WT (P04626 23-1255): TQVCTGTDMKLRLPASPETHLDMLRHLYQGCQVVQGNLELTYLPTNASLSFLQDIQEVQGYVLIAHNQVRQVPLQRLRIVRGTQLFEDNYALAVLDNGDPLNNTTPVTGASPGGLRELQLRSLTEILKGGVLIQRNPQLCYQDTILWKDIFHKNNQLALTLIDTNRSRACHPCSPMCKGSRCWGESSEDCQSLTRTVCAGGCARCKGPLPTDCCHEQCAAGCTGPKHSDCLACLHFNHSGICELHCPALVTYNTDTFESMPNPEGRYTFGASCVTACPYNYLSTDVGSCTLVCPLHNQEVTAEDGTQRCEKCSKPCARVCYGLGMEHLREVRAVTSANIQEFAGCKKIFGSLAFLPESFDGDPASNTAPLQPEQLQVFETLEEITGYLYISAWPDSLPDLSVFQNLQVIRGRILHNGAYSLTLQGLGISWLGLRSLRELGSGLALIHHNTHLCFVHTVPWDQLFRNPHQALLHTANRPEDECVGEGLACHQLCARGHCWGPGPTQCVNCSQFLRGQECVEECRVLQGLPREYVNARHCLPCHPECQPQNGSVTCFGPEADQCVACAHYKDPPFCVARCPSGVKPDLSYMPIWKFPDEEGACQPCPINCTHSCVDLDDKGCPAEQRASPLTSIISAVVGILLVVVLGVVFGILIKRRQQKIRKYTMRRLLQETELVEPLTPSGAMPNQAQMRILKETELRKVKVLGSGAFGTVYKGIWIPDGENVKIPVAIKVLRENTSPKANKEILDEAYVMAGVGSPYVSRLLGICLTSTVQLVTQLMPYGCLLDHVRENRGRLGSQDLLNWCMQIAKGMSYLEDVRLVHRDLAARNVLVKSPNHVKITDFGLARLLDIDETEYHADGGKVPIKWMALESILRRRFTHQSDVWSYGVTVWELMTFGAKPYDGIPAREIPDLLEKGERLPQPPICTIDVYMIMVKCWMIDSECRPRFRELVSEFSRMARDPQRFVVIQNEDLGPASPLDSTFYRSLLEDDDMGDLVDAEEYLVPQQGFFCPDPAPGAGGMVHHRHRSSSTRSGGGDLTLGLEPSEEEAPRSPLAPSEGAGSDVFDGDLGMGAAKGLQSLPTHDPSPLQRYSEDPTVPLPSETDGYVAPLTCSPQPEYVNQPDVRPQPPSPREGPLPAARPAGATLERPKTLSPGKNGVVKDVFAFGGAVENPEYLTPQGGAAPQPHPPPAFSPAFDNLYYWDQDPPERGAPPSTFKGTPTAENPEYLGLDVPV
Sequence of ErbB2 insYVMA (HER2-YVMA, SEQ ID NO: 2) (P04626 with tags, fused parts or gaps INS775YVMA/P1170A limits assumed): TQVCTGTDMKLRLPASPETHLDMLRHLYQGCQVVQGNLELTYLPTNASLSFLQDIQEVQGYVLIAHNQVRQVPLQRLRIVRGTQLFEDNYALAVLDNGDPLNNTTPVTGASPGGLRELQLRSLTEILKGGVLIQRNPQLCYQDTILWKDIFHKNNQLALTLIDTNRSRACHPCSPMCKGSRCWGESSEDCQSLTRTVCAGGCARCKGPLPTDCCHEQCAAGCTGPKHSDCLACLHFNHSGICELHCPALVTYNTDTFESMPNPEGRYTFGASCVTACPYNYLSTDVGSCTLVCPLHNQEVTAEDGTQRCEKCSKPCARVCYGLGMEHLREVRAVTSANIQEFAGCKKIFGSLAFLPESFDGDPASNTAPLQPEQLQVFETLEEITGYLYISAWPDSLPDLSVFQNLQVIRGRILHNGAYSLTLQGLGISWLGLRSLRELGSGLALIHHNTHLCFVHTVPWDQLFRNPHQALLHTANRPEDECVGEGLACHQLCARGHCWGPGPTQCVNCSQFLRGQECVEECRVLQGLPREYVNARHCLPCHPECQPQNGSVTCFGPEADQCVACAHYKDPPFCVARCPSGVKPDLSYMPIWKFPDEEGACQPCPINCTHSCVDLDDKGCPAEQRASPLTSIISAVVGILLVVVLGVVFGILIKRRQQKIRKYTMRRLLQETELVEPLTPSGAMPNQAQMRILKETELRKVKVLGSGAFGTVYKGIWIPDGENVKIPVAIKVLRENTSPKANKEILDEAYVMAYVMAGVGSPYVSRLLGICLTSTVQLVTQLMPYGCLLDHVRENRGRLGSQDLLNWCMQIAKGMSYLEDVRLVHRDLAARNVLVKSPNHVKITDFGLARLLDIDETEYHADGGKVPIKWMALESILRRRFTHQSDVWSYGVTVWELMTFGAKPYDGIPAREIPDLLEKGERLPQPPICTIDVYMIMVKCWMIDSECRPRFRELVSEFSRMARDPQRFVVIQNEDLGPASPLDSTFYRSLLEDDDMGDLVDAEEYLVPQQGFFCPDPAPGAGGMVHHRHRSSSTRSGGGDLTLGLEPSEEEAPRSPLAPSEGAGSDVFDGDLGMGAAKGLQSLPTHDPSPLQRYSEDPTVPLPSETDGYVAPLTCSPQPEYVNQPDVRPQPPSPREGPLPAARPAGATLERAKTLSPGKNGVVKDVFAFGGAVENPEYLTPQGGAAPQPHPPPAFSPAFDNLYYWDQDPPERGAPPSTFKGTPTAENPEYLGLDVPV
Sequence of BCRP (Q9UNQ0 whole entry): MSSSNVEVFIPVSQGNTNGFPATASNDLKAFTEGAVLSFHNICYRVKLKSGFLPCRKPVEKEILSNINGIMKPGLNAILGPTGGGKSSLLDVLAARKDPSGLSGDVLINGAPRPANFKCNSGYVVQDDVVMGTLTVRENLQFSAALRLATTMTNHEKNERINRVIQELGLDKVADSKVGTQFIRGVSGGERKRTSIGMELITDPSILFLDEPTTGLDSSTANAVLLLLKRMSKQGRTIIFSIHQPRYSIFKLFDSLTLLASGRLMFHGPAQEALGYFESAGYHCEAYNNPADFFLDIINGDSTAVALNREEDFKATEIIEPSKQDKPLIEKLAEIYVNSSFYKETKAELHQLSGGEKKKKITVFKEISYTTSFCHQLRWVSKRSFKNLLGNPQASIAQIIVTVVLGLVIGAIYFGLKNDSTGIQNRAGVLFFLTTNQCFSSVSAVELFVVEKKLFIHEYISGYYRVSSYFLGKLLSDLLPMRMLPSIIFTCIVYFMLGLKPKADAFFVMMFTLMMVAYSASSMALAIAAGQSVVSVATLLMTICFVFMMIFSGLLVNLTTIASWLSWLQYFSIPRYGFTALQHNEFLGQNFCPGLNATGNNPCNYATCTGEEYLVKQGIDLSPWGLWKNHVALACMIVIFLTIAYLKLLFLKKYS

SMILES | pIC50 (EGFR wild type (EGFR WT)) | efflux ratio at 2 h, 1 μM (BCRP; [3]) | efflux ratio at 2 h, 1 μM (MDR1 (P-gp); [4]) | pIC50 (EGFR) | pIC50 [1] | pIC50 [2] | pIC50 (ErbB2 WT) | efflux ratio at 2 h, 1 μM (BCRP) | efflux ratio at 2 h, 1 μM (MDR1 (P-gp); LLC-PK1) | IC50 ([2]; Assay 1 IC50 (nM)) [nM]
Cc1cc(Nc2ncnc3cnc(N4CC[C@@H](C(F)F)C4)nc23)ccc1Oc1ccc2c(c1)ncn2C [Example 253] | ≤ 5.30 | 2 | 1.2 | ≤ 5.00 | 7.41 | 7.03 | 6.77 | – | – | –
Cc1nc(-c2ncc3ncnc(Nc4ccc(Oc5ccc6c(c5)ncn6C)c(C)c4)c3n2)cs1 [Example 247] | ≤ 5.30 | 4.7 | 1.6 | ≤ 5.00 | 8.46 | 7.09 | 7.01 | – | – | –
Cc1cc(Nc2ncnc3cnc(N4C[C@H]5C[C@@H]4CO5)nc23)ccc1Oc1cc(F)c2c(c1)ncn2C [Example 204, 6-((1R,4R)-2-oxa-5-azabicyclo[2.2.1]heptan-5-yl)-N-(4-((7-fluoro-1-methyl-1H-benzo[d]imidazol-5-yl)oxy)-3-methylphenyl)pyrimido[5,4-d]pyrimidin-4-amine] | ≤ 5.30 | 1.2 | 1.3 | 5.09 | 7.88 | 7.50 | 6.97 | – | – | –
Cc1cc(Nc2ncnc3cnc(N(C)CC(C)(C)O)nc23)ccc1Oc1ccc2c(c1)ncn2C [Example 163, 2-methyl-1-(methyl(8-((3-methyl-4-((1-methyl-1H-benzo[d]imidazol-5-yl)oxy)phenyl)amino)pyrimido[5,4-d]pyrimidin-2-yl)amino)propan-2-ol] | ≤ 5.30 | 2.7 | 1.8 | 5.35 | 7.67 | 7.55 | 7.43 | – | – | –
[2H]C([2H])([2H])Nc1ncc2ncnc(Nc3ccc(Oc4ccc5c(c4)ncn5C)c(C)c3)c2n1 [Example 65, N2-(methyl-d3)-N8-(3-methyl-4-((1-methyl-1H-benzo[d]imidazol-5-yl)oxy)phenyl)pyrimido[5,4-d]pyrimidine-2,8-diamine] | ≤ 5.30 | 1.9 | 1.6 | 5.52 | 8.06 | 8.07 | 7.64 | – | – | –
Cc1cc(Nc2ncnc3cnc(N4CCO[C@@H](C)C4)nc23)ccc1Oc1ccc2c(c1)ncn2C.O=C(O)C(F)(F)F [Example 74, (S)—N-(3-methyl-4-((1-methyl-1H-benzo[d]imidazol-5-yl)oxy)phenyl)-6-(2-methylmorpholino)pyrimido[5,4-d]pyrimidin-4-amine 2,2,2-trifluoroacetate] | ≤ 5.30 | – | – | 5.43 | 7.84 | – | 7.45 | 1.3 | 1.7 | 33
Cc1cc(Nc2ncnc3cnc(N(C)C4CC4)nc23)ccc1Oc1ccc2c(c1)ncn2C [Example 31, N2-cyclopropyl-N2-methyl-N8-(3-methyl-4-((1-methyl-1H-benzo[d]imidazol-5-yl)oxy)phenyl)pyrimido[5,4-d]pyrimidine-2,8-diamine] | ≤ 5.30 | 1.4 | 1.3 | ≤ 5.00 | 7.63 | 6.93 | 6.80 | – | – | –
Cc1cc(Nc2ncnc3cnc(N(C)CC(F)F)nc23)ccc1Oc1ccc2c(c1)ncn2C [Example 57, N2-(2,2-difluoroethyl)-N2-methyl-N8-(3-methyl-4-((1-methyl-1H-benzo[d]imidazol-5-yl)oxy)phenyl)pyrimido[5,4-d]pyrimidine-2,8-diamine] | ≤ 5.30 | 1.4 | 1.1 | 5.18 | 8.03 | 7.52 | 7.42 | – | – | –
Cc1cc(Nc2ncnc3cnc(N4CC5C6CCC(O6)C5C4)nc23)ccc1Oc1ccc2c(c1)ncn2C (centres unmarked) [Example 16, N-(3-methyl-4-((1-methyl-1H-benzo[d]imidazol-5-yl)oxy)phenyl)-6-(octahydro-2H-4,7-epoxyisoindol-2-yl)pyrimido[5,4-d]pyrimidin-4-amine] | ≤ 5.30 | 1.8 | 1.2 | ≤ 5.00 | 7.82 | 7.59 | – | – | – | –
Cc1cc(Nc2ncnc3cnc(N4CCO[C@@H]5C[C@@H]54)nc23)ccc1Oc1ccc2c(c1)ncn2C [Example 199, 6-((1R,6S)-2-oxa-5-azabicyclo[4.1.0]heptan-5-yl)-N-(3-methyl-4-((1-methyl-1H-benzo[d]imidazol-5-yl)oxy)phenyl)pyrimido[5,4-d]pyrimidin-4-amine] | ≤ 5.30 | 1.4 | 1.9 | 5.25 | 7.75 | 7.79 | – | – | – | –
Cc1cc(Nc2ncnc3cnc(N4C[C@@H](C)O[C@@H](C)C4)nc23)ccc1Oc1ccc2c(c1)ncn2C [Example 25, 6-((2S,6R)-2,6-dimethylmorpholino)-N-(3-methyl-4-((1-methyl-1H-benzo[d]imidazol-5-yl)oxy)phenyl)pyrimido[5,4-d]pyrimidin-4-amine] | – | 1.4 | 1.7 | ≤ 5.00 | 7.27 | 6.76 | 6.48 | – | – | –
Cc1cc(Nc2ncnc3cnc(N(C)CC4(O)CC4)nc23)ccc1Oc1ccc2c(c1)ncn2C [Example 166, 1-((methyl(8-((3-methyl-4-((1-methyl-1H-benzo[d]imidazol-5-yl)oxy)phenyl)amino)pyrimido[5,4-d]pyrimidin-2-yl)amino)methyl)cyclopropan-1-ol] | ≤ 5.30 | – | 4.6 | ≤ 5.00 | 8.52 | 7.79 | 7.40 | – | – | –
Cc1cc(Nc2ncnc3cnc(N4CCN(C)C4=O)nc23)ccc1Oc1ccc2c(c1)ncn2C [Example 28, 1-methyl-3-(8-((3-methyl-4-((1-methyl-1H-benzo[d]imidazol-5-yl)oxy)phenyl)amino)pyrimido[5,4-d]pyrimidin-2-yl)imidazolidin-2-one] | ≤ 5.30 | – | 13.3 | ≤ 5.00 | 7.61 | 7.16 | 6.79 | – | – | –
Cc1cc(Nc2ncnc3cnc(NC4COC4)nc23)ccc1Oc1ccc2c(c1)ncn2C [Example 259] | ≤ 5.30 | – | 8.8 | ≤ 5.00 | 7.71 | 7.53 | 7.34 | – | – | –
Cc1cc(Nc2ncnc3cnc(O[C@H]4CCNC[C@@H]4F)nc23)ccc1Oc1ccc2c(c1)ncn2C [Example 285] | ≤ 5.30 | – | 72.1 | ≤ 5.00 | 7.27 | 7.08 | 6.10 | – | – | –
Cc1cc(Nc2ncnc3cnc(N4CC5(CC5)CO4)nc23)ccc1Oc1ccc2c(c1)ncn2C [Example 187, N-(3-methyl-4-((1-methyl-1H-benzo[d]imidazol-5-yl)oxy)phenyl)-6-(5-oxa-6-azaspiro[2.4]heptan-6-yl)pyrimido[5,4-d]pyrimidin-4-amine] | ≤ 5.30 | – | – | ≤ 5.00 | 7.84 | 7.42 | 6.96 | – | 2.7 | –
Cc1cc(Nc2ncnc3cnc(N)nc23)ccc1Oc1ccc2c(c1)ncn2C [Example 206, N8-(3-methyl-4-((1-methyl-1H-benzo[d]imidazol-5-yl)oxy)phenyl)pyrimido[5,4-d]pyrimidine-2,8-diamine bis(2,2,2-trifluoroacetate)] | ≤ 5.30 | – | 3.3 | ≤ 5.00 | 7.61 | 7.90 | 7.39 | – | – | –
Cc1cc(Nc2ncnc3cnc(N4CC(CS(C)(=O)=O)C4)nc23)ccc1Oc1ccc2c(c1)ncn2C [Example 232] | ≤ 5.30 | – | 31.3 | 5.19 | 7.40 | 7.82 | 7.91 | – | – | –
Cc1cc(Nc2ncnc3cnc(N[C@@H]4CCN(C)C[C@@H]4F)nc23)ccc1Oc1ccc2c(c1)ncn2C [Example 84, N2-((3S,4R)-3-fluoro-1-methylpiperidin-4-yl)-N8-(3-methyl-4-((1-methyl-1H-benzo[d]imidazol-5-yl)oxy)phenyl)pyrimido[5,4-d]pyrimidine-2,8-diamine] | ≤ 5.30 | – | 10.2 | 5.27 | 7.59 | 7.85 | 7.33 | – | – | –
